Test results: PubChem BioAssay (NCI)
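48-hour exposure; five concentrations; linearly interpolated endpoints. GI50: concentration for 50% inhibition of growth. TGI is the concentration that stops growth completely.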

Key:
Assay in all cases: NCI anticancer screen, dose series, 48 h
[1] = system: NCI-H460 lung
[2] = system: RXF 393 renal
[3] = system: CCRF-CEM leukemia
[4] = system: MOLT-4 leukemia
[5] = system: EKVX NSCLC
[6] = system: A549 NSCLC
[7] = system: CAKI-1 renal
[8] = system: SK-MEL-28 melanoma
[9] = system: HT29 colon
[10] = system: OVCAR-5 ovarian

Compound | GI50 [1] | TGI [1] | GI50 [2] | TGI [2] | GI50 [3] | TGI [3] | GI50 [4] | TGI [4] | GI50 [5] | TGI [5] | GI50 [6] | TGI [6] | GI50 [7] | TGI [7] | GI50 [8] | TGI [8] | GI50 [9] | TGI [9] | GI50 [10] | TGI [10]
CCCCCCCCCCCCCC[n+]1ccc(C)cc1 | 994 nM | 2.23 µM | 1050 nM | 2.35 µM | 818 nM | 5.11 µM | 689 nM | 2.65 µM | 296 nM | 1.42 µM | 1.53 µM | 2.94 µM | 0.933 µM | 2.66 µM | 1440 nM | 3.09 µM | 356 nM | 1.82 µM | 1140 nM | 5.18 µM
CC(C)c1ccccc1SCc1cc(=O)cc(CSc2ccccc2C(C)C)o1 | – | 69.7 µM | – | > 100 µM | – | 95.6 µM | – | 93.3 µM | – | 38.4 µM | – | > 100 µM | – | 49.4 µM | – | 57.8 µM | – | 41.2 µM | – | 34.7 µM
C=C1C(=O)OC2CC(C)C3C4OC4C(O)C3(C)C(O)C12 (centres undefined) | – | 62.9 µM | – | 53.7 µM | – | 56 µM | – | 41.8 µM | – | 63.9 µM | – | 121 µM | – | 67.9 µM | – | 71.2 µM | – | 83.8 µM | – | 108 µM
CC12CCC(CC1)C(C)(C)O2 | 1240 nM | 12.3 µM | – | 56.9 µM | 35800 nM | 201 µM | – | 77.2 µM | – | 104 µM | 6.75 µM | 79.7 µM | 15.7 µM | > 61.2 µM | – | 131 µM | – | 128 µM | – | 116 µM
O=C1/C(=C/c2ccc(O)cc2)COc2ccc(O)c(O)c21 | 2160 nM | 4.69 µM | 1550 nM | 3.82 µM | 652 nM | 8.53 µM | 1990 nM | > 100 µM | 2910 nM | > 100 µM | 3.6 µM | > 100 µM | 3.02 µM | 12.9 µM | 3810 nM | 64.6 µM | 3520 nM | 16.9 µM | 2640 nM | 7.26 µM
CSc1nc(N)c2c(-c3ccccc3)c3c(nc2n1)CCCC3 | – | > 100 µM | – | 94.2 µM | – | > 100 µM | – | > 100 µM | – | > 100 µM | – | > 100 µM | – | > 100 µM | – | > 100 µM | – | > 100 µM | – | > 100 µM
